# Test results reported in ChEMBL document CHEMBL3507680, “University of Dundee, Gates Library screen for HepG2 cell viability”.
# Experiment: Human HepG2 cell viability assay in 384 well format
# Assay type: toxicity, cell-based
# Set-up: dose 125 nL, time 70.5 hour; concentration not given beside the values
# Conditions: HepG2 cells, read-out: Inhibition
row,Structure (SMILES),cytotoxicity at 70.5 h [%]
1,CNC(=O)[C@@H]1C[C@H]2CN(Cc3ccc(C)s3)C[C@H]2N1C(C)=O,-1.67
2,COC(=O)c1ccc(C(=O)N2CCC(c3nnc(C)s3)CC2)cc1,-10.2
3,CS(=O)(=O)NC1CC2(CCN(CCF)CC2)Oc2ccccc21 (centres undefined),-4.96
4,COc1ccc(NC(=O)N(CCO)Cc2ccsc2)c(OC)c1,0.461
5,COc1ccccc1[S+]([O-])CC(=O)NCc1cc(F)cc(F)c1 (centres undefined),2.23
6,Cc1csc(N2CCN(C(=O)C3(C#N)CCCC3)CC2)n1,-5.35
7,O=C(Cn1ccc2sccc2c1=O)NCCCc1ccccc1,-9.43
8,OCCN(Cc1ccccc1)Cc1ccsc1,-9.98
9,Cc1ccc(C(N)=O)cc1NCCOc1cccc(C#N)c1,-4.01
10,COCC(=O)N(Cc1cccnc1)CC1CCCN(C2CCCCC2)C1 (centres undefined),-5.51
11,COCCN1CC=C(c2cccc(OC)c2)CC1,1.42
12,Cc1ccc(-c2nc(C3CCN(C(=O)c4ccn(C)n4)CC3)no2)cn1,-10.5
13,Cc1ccc(C(=O)N2C[C@@H](NS(C)(=O)=O)[C@H](C(C)C)C2)cc1O,1.71
14,COc1cccc(N2C(=O)CC3(CCNCC3)C2=O)c1,-4.17
15,CCn1c(CN2CCCC(O)(c3ccc(F)cc3)CC2)cnc1SC (centres undefined),-5.35
16,CCN(CC)C1CCN(c2ncnc3c2CCN(C(=O)C2CC2)C3)C1 (centres undefined),-2.79
17,CC(C)(O)c1cn(C2CCN(c3ncccc3Cl)CC2)nn1,3.9
18,O=C(Nc1cccs1)N1CC(c2nc(C3CC3)no2)C1,-5.71
19,Cc1ccc(-c2ncc(CNc3cnccc3CO)s2)o1,-2.69
20,O=C(NCc1ccco1)[C@@H]1CCO[C@@H]2CCN(CC3CC3)C[C@@H]21,-6.8
21,O=C(NC1CCN(c2ncccc2F)C1)c1cccc(-n2ccnc2)c1 (centres undefined),-9.37
22,COC1CN(C(=O)NCC(N)=O)CCC(=O)N(C)c2ccccc21 (centres undefined),-7.69

row,Structure (SMILES),cytotoxicity at 70.5 h [%]
1,O=C(CCn1cccn1)N1C[C@@H]2CC[C@H](C1)N(Cc1ccccn1)C2=O,-2.38
2,CC(C)NC(=O)C1(Cc2ccccc2-c2cncnc2)CCCNC1 (centres undefined),-4.61
3,CCc1nc(CN(C)C2CCN(Cc3nc(C4CC4)no3)C2)no1 (centres undefined),31.8
4,COc1ccccc1CN(CC1CCCO1)C(=O)c1ccc(F)cn1 (centres undefined),-9.98
5,CCn1ncc(-c2cc(C(F)F)nc3sc(C(N)=O)c(N)c23)c1C,9.78
6,O=C(CN1CCCCC1Cn1cncn1)NCCC1=CCCCC1 (centres undefined),32
7,Cc1ccc(CNC(=O)CN2CCOC(Cn3cccn3)C2)s1 (centres undefined),-4.52
8,Cc1c(C(=O)NC2=NCCS2)cnn1-c1ccc(Cl)cc1,-3.08
9,c1cncc(OC[C@@]23CCO[C@@H]2CCN(Cc2cccs2)C3)c1,-100
10,COc1cc(C(=O)O)ccc1OCC(=O)NC(C)c1ccc(F)cc1 (centres undefined),-5.08
11,CC(C)(O)CCc1cccc(C(=O)N[C@H](C(N)=O)c2ccccc2)c1,-11
12,COc1ccc(S(=O)(=O)N2CCC(OCc3ccccn3)C2)cc1Br (centres undefined),-9.24
13,NC(=O)C1CCN(C(=O)c2cc(S(=O)(=O)N3CCCCC3)cs2)CC1,14.2
14,COc1ccccc1CN1CC(OC)CN(C(=O)OCC(C)C)CC1=O (centres undefined),-3.02
15,O=C(c1cnccn1)N1CCCC2(CCN(Cc3ccsc3)C2)C1 (centres undefined),-5.33
16,CN(Cc1noc(C2CC2)n1)C1CCN(Cc2ccc(F)c(F)c2)C1 (centres undefined),-8.17
17,COC(=O)CNC(=O)c1nc(Cl)sc1C(C)C,24.5
18,Cc1cnn(CC2CCCN2C(=O)c2nccc3ccccc23)c1 (centres undefined),-15.9
19,Cc1ccccc1CC(=O)NS(=O)(=O)c1cccc2cnccc12,-40.8
20,COC(=O)CCC(=O)N1CCC2(CN(Cc3ccccc3F)C2)C1,-7.6
21,CCN(Cc1cccs1)S(=O)(=O)N(C)C(C)C,-18.1
22,O=C(CN1CCS(=O)(=O)CC1)NCc1cccc(Br)c1,-2.1
